From the supplement of paper PMC10307832

How the values were obtained:
Test in all cases: relative viability (nuclei count vs DMSO), 5 days (fraction); higher = more cells survive
[1] = compound: O=C(O)c1ccc2c(c1)nc(Nc1cccc(Cl)c1)c1ccncc12 [Silmitasertib] + Cc1nc(NC(=O)N2CCC[C@H]2C(N)=O)sc1-c1ccnc(C(C)(C)C(F)(F)F)c1 [Alpelisib] (partner 2 µM)
Method in brief: (§1)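 Relative viability divides the nuclei count in treated wells by that in vehicle wells. Lung cancer cell lines were seeded in 1536-well plates, dosed by pin tool the next day, and fixed and stained after 5 days in one step with final 0.05% Triton X-100, 1% formaldehyde and 1 ug/ml Hoechst. Dosing was a single drug or a fixed anchor-drug dose plus five library-drug doses (not always all listed) in √10 steps, and values are medians of duplicate plates imaged at 4×.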

[2] = compound: O=C(O)c1ccc2c(c1)nc(Nc1cccc(Cl)c1)c1ccncc12 [Silmitasertib] + CS(=O)(=O)CCNCc1ccc(-c2ccc3ncnc(Nc4ccc(OCc5cccc(F)c5)c(Cl)c4)c3c2)o1 [Lapatinib] (partner 2 µM)
Method in brief: as §1

[3] = compound: O=C(O)c1ccc2c(c1)nc(Nc1cccc(Cl)c1)c1ccncc12 [Silmitasertib] + N=C(N)NC(=N)NCCc1ccccc1 [Phenformin] (partner 250 µM)
Method in brief: as §1

Silmitasertib + AZD7762 = compound: O=C(O)c1ccc2c(c1)nc(Nc1cccc(Cl)c1)c1ccncc12 [Silmitasertib] + NC(=O)Nc1cc(-c2cccc(F)c2)sc1C(=O)N[C@H]1CCCNC1 [AZD7762] (partner 0.2 µM)
Method in brief: as §1

[4] = compound: O=C(O)c1ccc2c(c1)nc(Nc1cccc(Cl)c1)c1ccncc12 [Silmitasertib] + Cc1nc(Nc2ncc(C(=O)Nc3c(C)cccc3Cl)s2)cc(N2CCN(CCO)CC2)n1 [Dasatinib] (partner 0.075 µM)
Method in brief: as §1

| Cell Line | relative viability ([1]; first compound 0.04 µM) | relative viability ([1]; first compound 0.4 µM) | relative viability ([1]; first compound 1.265 µM) | relative viability ([1]; first compound 4 µM) | relative viability ([2]; first compound 0.04 µM) | relative viability ([2]; first compound 0.4 µM) | relative viability ([2]; first compound 1.265 µM) | relative viability ([2]; first compound 4 µM) | relative viability ([3]; first compound 0.04 µM) | relative viability ([3]; first compound 0.4 µM) | relative viability ([3]; first compound 1.265 µM) | relative viability ([3]; first compound 4 µM) | relative viability (Silmitasertib + AZD7762; first compound 0.04 µM) | relative viability (Silmitasertib + AZD7762; first compound 0.4 µM) | relative viability (Silmitasertib + AZD7762; first compound 1.265 µM) | relative viability (Silmitasertib + AZD7762; first compound 4 µM) | relative viability ([4]; first compound 0.04 µM) | relative viability ([4]; first compound 0.4 µM) | relative viability ([4]; first compound 1.265 µM) | relative viability ([4]; first compound 4 µM) |
| --- | --- | --- | --- | --- | --- | --- | --- | --- | --- | --- | --- | --- | --- | --- | --- | --- | --- | --- | --- | --- |
| LU99A | 0.502 | 0.521 | 0.399 | 0.471 | 1.04 | 1.03 | 0.613 | 0.588 | 0.883 | 0.883 | 0.848 | 0.518 | 0.339 | 0.382 | 0.276 | 0.283 | 0.478 | 0.46 | 0.369 | 0.434 |
| LXF-289 | 1.06 | – | 1.09 | 1.07 | 0.931 | – | 0.999 | 1 | 0.53 | – | 0.58 | 0.382 | 1.13 | – | 1.29 | 1.28 | 0.181 | – | 0.346 | 0.363 |
| NCI-H23 | 0.762 | – | 0.67 | 0.547 | 1.45 | – | 0.73 | 0.355 | 0.639 | – | 0.675 | 0.403 | 0.29 | 0.153 | 0.344 | 0.165 | 0.793 | – | 0.652 | 0.581 |
| NCI-H322M | 0.763 | 0.71 | 0.559 | 0.465 | 0.668 | 0.549 | 0.42 | 0.387 | 0.783 | 0.761 | 0.603 | 0.384 | 0.554 | 0.608 | 0.562 | 0.405 | 0.243 | 0.294 | 0.282 | 0.294 |
| NCI-H358 | 0.916 | 0.786 | 0.65 | 0.48 | 0.448 | 0.57 | 0.507 | 0.35 | 0.371 | 0.272 | 0.325 | 0.225 | 0.633 | 0.574 | 0.595 | 0.567 | 0.176 | 0.312 | 0.14 | 0.155 |
| NCI-H460 | 0.488 | 0.512 | 0.466 | 0.421 | 1.21 | 0.997 | 1.02 | 0.305 | 0.523 | 0.525 | 0.583 | 0.414 | 0.608 | 0.671 | 0.759 | 0.384 | 0.56 | 0.445 | 0.44 | 0.448 |
| NCI-H596 | 0.47 | 0.429 | 0.382 | 0.444 | 1.06 | 1.04 | 0.833 | 0.977 | 0.655 | 0.632 | 0.735 | 0.573 | 1.04 | 1.08 | 0.953 | 0.957 | 0.617 | 0.563 | 0.463 | 0.497 |
| NCI-H647 | 1.37 | 1.09 | 0.688 | 0.465 | 1.37 | 0.801 | 0.716 | 0.328 | 0.513 | 0.303 | 0.477 | 0.189 | 0.513 | 0.364 | 0.404 | 0.19 | 0.185 | 0.266 | 0.171 | 0.0776 |
